Source: PMC9696832, “Pyrazole-Based Thrombin Inhibitors with a Serine-Trapping Mechanism of Action: Synthesis and Biological Activity” (Pharmaceuticals, 2022)
Values joined by “and” are separate entries in the source; they are usually repeats but may differ in a detail not shown here. Equal values may be shown once. Read-outs that look alike come from different tables or passages of the source.

Assays:
[1] = biological target: T1, human α-thrombin (Homo sapiens, UniProt P00734); experiment: Serine protease inhibition assay, fluorogenic substrate: thrombin; format: biochemical; conditions: for IC50: read-out: Serine Protease IC50 ± SD, Thrombin
T1 construct: human α-thrombin (active) protein; purchased antibodies-online ABIN2127880
Description: Serine protease inhibition assays. The inhibitory activity of synthesized compounds towards thrombin, FXIIa, FXa, FXIa, plasmin, plasma kallikrein, chymotrypsin, and trypsin was measured by quantifying the hydrolysis rate of the fluorogenic substrate as reported previously [14, 17]. Briefly, the activity was tested in buffer (10 mM Tris-Cl, 150 mM NaCl, 10 mM MgCl2·6H2O, 1 mM CaCl2·2H2O, 0.1% w/v BSA, 0.01% v/v Triton-X100, pH = 7.4) utilizing clear flat-bottom, black polystyrene 96 well-plates. […] The fluorogenic substrate solution was added into the wells followed by the addition of 2 µL of test-compounds solution, and the reaction was triggered by addition of the enzyme solution (final testing volume–152 µL). In case of blank (substrate + buffer) and control (substrate + enzyme) wells, 2 µL of DMSO was added instead of the test-compounds’ solution. […] To derive IC50 values, endpoint RFU (single fluorescence reading) was used. Sigmoidal curves were prepared in GraphPad Prism software and IC50 values were derived from the fitted curves [14, 17].

[2] = biological target: T2, human plasmin (Homo sapiens, UniProt P00747); experiment: Serine protease inhibition assay, fluorogenic substrate: plasmin; format: biochemical; conditions: screened at 5 μM; [S]0 = 25 µM; read-out: Serine Protease IC50 ± SD, Plasmin
T2 construct: human plasmin, >95% purity; purchased Innovative Research
Description: (§1) Serine protease inhibition assays. The inhibitory activity of synthesized compounds towards thrombin, FXIIa, FXa, FXIa, plasmin, plasma kallikrein, chymotrypsin, and trypsin was measured by quantifying the hydrolysis rate of the fluorogenic substrate as reported previously. Briefly, the activity was tested in buffer (10 mM Tris-Cl, 150 mM NaCl, 10 mM MgCl2·6H2O, 1 mM CaCl2·2H2O, 0.1% w/v BSA, 0.01% v/v Triton-X100, pH = 7.4) utilizing clear flat-bottom, black polystyrene 96 well-plates. […] Dilutions of test-compounds ranging from 2 nM to 32 µM (final concentrations) in DMSO were prepared. The fluorogenic substrate solution was added into the wells followed by the addition of 2 µL of test-compounds solution, and the reaction was triggered by addition of the enzyme solution (final testing volume–152 µL). In case of blank (substrate + buffer) and control (substrate + enzyme) wells, 2 µL of DMSO was added instead of the test-compounds’ solution. Fluorescence intensity was measured with Microplate Reader Mithras LB 940 (Berthold Technologies, excitation at 355 nm, emission at 460 nm) for a period of 1 h (thrombin, FXIIa, FXa, FXIa, and trypsin), 30 min (plasma kallikrein, chymotrypsin), or 15 min (plasmin) with a read every minute. The reactions were performed at 25 °C. To derive IC50 values, endpoint RFU (single fluorescence reading) was used. Sigmoidal curves were prepared in GraphPad Prism software and IC50 values were derived from the fitted curves.

[3] = system: human chymotrypsin; experiment: Serine protease inhibition assay, fluorogenic substrate: chymotrypsin; format: biochemical; conditions: for IC50: screened at 5 μM, IC50 in triplicate for actives, [S]0 = 25 µM, read-out: Serine Protease IC50 ± SD, Chymotrypsin
Description: as §1

[4] = biological target: T3, porcine trypsin (Sus scrofa, UniProt P00761); experiment: Serine protease inhibition assay, fluorogenic substrate: trypsin; format: biochemical; conditions: screened at 5 μM; [S]0 = 25 µM; read-out: Serine Protease IC50 ± SD, Trypsin
T3 construct: porcine trypsin; Merck; purchased Merck
Description: as §1

[5] = system: human pooled plasma; experiment: In vitro plasma coagulation assay (aPTT); format: biochemical; conditions: tested at 200 μM
Description: (§2) In vitro plasma coagulation assays (aPTT and PT). All measurements were performed using commercially available citrated (3.8%) human pooled plasma (Dunn Labortechnik GmbH, Germany) on a semi-automated coagulometer (Thrombotimer-2, Behnk Elektronik, Germany) according to the manufacturer instructions as previously reported. For aPTT measurement, plasma (100 μL) was placed into the incubation cuvettes of the instrument and incubated for 2 min at 37 °C. Then, test compound solution (10 μL) or solvent (DMSO, 10 μL) was added with a pipette. After 1 min of incubation, 100 μL of prewarmed (37 °C) aPTT reagent (Convergent Technologies, Germany) was added and incubated for additional 2 min. The cuvettes were transferred to a measuring position, the coagulation was initiated by addition of 100 μL of CaCl2 solution (25 mM, prewarmed at 37 °C, Convergent Technologies, Germany) and the clotting time was recorded. For PT assays, plasma (100 μL) was incubated for 2 min at 37 °C. Then, test compound solution (10 μL) or solvent (DMSO, 10 μL) was added with a pipette. After 3 min of incubation, the cuvettes were transferred to a measuring position, the coagulation was initiated by addition of 100 μL of PT assay reagent already containing CaCl2 (prewarmed at 37 °C, Biolabo, France) and the clotting time was recorded.

[6] = biological target: T4, human β-FXIIa (Homo sapiens, UniProt P00748); experiment: Serine protease inhibition assay, fluorogenic substrate: FXIIa; format: biochemical; conditions: read-out: Serine Protease IC50 ± SD, FXIIa
T4 construct: human β-FXIIa, HFXIIAB; purchased Molecular Innovations HFXIIAB
Description: as §1

[7] = biological target: T5, human Factor XIa (Homo sapiens, UniProt P03951); experiment: Serine protease inhibition assay, fluorogenic substrate: FXIa; format: biochemical
T5 construct: human Factor XIa, HFXIA; purchased Molecular Innovations HFXIA
Description: as §1

[8] = biological target: T6, human Factor Xa (Homo sapiens, UniProt P00742); experiment: Serine protease inhibition assay, fluorogenic substrate: FXa; format: biochemical; conditions: for IC50: screened at 5 μM, IC50 in triplicate for actives, [S]0 = 25 µM, read-out: Serine Protease IC50 ± SD, FXa
T6 construct: human Factor Xa, HFXA; purchased Molecular Innovations HFXA
Description: as §1

[9] = system: human pooled plasma; experiment: In vitro plasma coagulation assay (PT); format: biochemical; conditions: tested at 200 μM
Description: as §2

[10] = biological target: T7, human plasma kallikrein (Homo sapiens, UniProt P03952); experiment: Serine protease inhibition assay, fluorogenic substrate: plasma kallikrein; format: biochemical; conditions: screened at 5 μM; IC50 in triplicate for actives; [S]0 = 25 µM; read-out: Serine Protease IC50 ± SD, PK (plasma kallikrein)
T7 construct: human plasma kallikrein, >94% purity; purchased Innovative Research
Description: as §1

[11] = biological target: T1, human α-thrombin; experiment: Mass-shift assay of the covalent thrombin-inhibitor complex by LC/ESI-MS; conditions: 79 μM inhibitor, preincubated 15 min, ESI(+); corresponds to pivaloyl moiety
Description: Analysis of the covalent thrombin-inhibitor complex by LC/ESI-MS. The analysis of covalent thrombin-inhibitor complex was performed utilizing LC/ESI-MS as reported previously with variations. Briefly, 2 µL of the stock solution (128 µM) of human α-thrombin (active) protein (ABIN2127880, >95% purity; antibodies-online) were diluted with 68 µL of purified water. […] Reversed phase liquid chromatography was performed using a Discovery BIO Wide Pore C5 column (100 × 2.1 mm, 3 µm particle size, 300 Å pore size) from Supelco (Bellefonte, PA, USA). For chromatographic analysis of the sample solutions, 0.1% formic acid in purified water (A) and 0.1% formic acid in acetonitrile (B) were used as mobile phase. The following gradient of 15 min in total was applied: starting with 5% B, B is increased up to 40% within 3 min. After holding 40% B for 1.5 min, B is decreased to 5% within 0.5 min and kept at 5% for 1 min. B is then increased to 95% within 4 min and kept at this value for 1 min. After decreasing B to 5% within 1 min, this ratio is kept for 3 min. […] The enzyme-inhibitor complex was analyzed in the positive ion mode using the following ESI-MS parameters: The mass range was set to m/z 1000–4000, nebulizer gas (nitrogen) was 1.6 bar, dry gas (nitrogen) was 9.0 L/min, dry gas temperature was 200 °C, Funnel 1 RF was 450 V, pre pulse storage time was 30 µs and transfer time was 100 µs. […]

[12] = screened at 5 μM, IC50 in triplicate for actives, [S]0 = 25 µM, read-out: Serine Protease IC50 ± SD, FXIa
[13] = [S]0 = 25 µM Boc-Val-Pro-Arg-AMC, Km = 18 ± 1 µM, triplicate, 25 °C

T7 sequence (P03952 391-638 limits assumed): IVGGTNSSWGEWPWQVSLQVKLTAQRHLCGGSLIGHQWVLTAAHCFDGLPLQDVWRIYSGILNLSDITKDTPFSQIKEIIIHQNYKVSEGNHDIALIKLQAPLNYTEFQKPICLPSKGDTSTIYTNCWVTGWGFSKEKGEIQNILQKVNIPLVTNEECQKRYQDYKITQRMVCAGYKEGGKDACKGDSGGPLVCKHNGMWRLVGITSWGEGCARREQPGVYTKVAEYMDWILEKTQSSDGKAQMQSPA
T7 sequence (P03952 20-390 limits assumed): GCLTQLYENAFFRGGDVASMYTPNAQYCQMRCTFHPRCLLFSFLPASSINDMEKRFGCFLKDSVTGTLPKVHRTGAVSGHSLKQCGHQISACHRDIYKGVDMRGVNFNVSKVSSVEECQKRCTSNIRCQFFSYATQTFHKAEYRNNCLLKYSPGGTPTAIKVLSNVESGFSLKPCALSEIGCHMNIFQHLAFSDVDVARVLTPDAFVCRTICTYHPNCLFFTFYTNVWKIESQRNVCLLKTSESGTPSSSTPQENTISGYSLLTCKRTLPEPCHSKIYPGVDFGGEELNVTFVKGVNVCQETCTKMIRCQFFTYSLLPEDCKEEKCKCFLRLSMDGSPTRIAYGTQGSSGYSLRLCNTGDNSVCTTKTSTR
T2 sequence (P00747 581-810 limits assumed): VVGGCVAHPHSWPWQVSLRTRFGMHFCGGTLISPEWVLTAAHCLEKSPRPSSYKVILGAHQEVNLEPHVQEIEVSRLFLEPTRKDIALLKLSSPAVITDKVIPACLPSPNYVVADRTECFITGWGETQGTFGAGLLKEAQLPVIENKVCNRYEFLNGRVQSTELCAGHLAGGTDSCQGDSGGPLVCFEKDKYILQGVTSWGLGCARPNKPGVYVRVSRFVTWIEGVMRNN
T2 sequence (P00747 97-580 limits assumed): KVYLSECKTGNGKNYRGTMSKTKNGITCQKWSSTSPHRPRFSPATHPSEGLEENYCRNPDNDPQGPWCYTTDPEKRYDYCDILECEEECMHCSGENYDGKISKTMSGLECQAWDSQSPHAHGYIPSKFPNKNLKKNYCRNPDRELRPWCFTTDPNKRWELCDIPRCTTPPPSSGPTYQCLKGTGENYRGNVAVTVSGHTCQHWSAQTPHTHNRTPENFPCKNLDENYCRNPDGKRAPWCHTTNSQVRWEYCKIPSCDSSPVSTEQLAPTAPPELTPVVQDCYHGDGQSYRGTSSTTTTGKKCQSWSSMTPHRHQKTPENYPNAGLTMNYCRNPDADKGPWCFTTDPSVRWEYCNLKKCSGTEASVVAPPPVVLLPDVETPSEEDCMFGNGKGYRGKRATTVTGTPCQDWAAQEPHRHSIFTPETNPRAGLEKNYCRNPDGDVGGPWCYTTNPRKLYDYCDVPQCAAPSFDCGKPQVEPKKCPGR
T4 sequence (P00748 373-615 limits assumed, other chains not shown): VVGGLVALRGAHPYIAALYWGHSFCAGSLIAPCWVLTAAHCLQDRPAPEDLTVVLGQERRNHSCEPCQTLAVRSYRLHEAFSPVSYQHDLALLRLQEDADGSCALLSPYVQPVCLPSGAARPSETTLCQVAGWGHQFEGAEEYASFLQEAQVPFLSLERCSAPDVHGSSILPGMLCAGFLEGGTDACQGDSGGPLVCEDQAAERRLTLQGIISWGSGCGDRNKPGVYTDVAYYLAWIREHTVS
T5 sequence (P03951 388-625 limits assumed): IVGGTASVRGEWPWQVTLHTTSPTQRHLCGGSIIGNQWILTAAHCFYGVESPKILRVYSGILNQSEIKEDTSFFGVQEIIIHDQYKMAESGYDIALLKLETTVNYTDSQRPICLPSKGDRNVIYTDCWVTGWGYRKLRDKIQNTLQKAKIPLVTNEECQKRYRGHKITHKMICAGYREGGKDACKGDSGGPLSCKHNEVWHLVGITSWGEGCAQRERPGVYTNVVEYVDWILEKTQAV
T5 sequence (P03951 19-387 limits assumed): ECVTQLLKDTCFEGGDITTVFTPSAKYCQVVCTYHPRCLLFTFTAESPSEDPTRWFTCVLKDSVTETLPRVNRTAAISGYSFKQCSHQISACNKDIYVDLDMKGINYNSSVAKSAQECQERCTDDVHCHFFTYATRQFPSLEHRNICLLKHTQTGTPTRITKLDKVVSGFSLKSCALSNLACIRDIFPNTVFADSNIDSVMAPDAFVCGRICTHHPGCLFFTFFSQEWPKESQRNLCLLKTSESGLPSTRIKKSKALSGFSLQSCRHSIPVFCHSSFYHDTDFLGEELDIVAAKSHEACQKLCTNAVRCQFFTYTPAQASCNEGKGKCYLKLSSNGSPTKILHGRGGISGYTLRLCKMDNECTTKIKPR
T6 sequence (P00742 235-488 limits assumed): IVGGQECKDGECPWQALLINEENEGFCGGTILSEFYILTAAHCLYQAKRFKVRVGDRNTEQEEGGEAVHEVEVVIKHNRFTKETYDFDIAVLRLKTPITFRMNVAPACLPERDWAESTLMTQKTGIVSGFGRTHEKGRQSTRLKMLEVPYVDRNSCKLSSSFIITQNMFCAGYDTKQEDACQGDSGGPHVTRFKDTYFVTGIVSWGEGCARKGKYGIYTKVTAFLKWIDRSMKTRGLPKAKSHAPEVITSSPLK
T6 sequence (P00742 41-179 limits assumed): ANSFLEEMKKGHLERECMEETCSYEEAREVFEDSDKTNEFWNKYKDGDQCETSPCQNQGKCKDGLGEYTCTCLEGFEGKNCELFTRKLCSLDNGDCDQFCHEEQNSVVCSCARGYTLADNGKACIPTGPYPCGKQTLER
T3 sequence (P00761 9-231): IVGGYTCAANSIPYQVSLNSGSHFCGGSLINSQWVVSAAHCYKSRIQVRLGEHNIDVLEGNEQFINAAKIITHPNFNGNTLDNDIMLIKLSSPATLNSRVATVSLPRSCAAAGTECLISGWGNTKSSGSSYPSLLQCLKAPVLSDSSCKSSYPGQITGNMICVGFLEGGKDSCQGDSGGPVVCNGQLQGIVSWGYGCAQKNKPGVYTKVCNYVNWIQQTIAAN

| SMILES | IC50 [1] | IC50 [2] | IC50 [3] | IC50 [4] | IC50 [6] | IC50 [7, 12] | IC50 [8] | IC50 [10] | IC50 [1, 13] | IC50 ([7]; read-out: FXIa IC50) | inhibition at 5 µM ([8]; at 5 μM) | fold more potent thrombin inhibitor than 3-phenyl-substituted analog 24g ([1]; IC50 16 nM vs. 419) | mass-shift of thrombin after incubation with inhibitor (Δm) [11] | melting point | aPTT, fold increase compared to DMSO [5] | PT, fold increase compared to DMSO [9] | fold higher dose for 50% inhibition of chymotrypsin than for thrombin ([3]; selectivity chymotrypsin vs thrombin) |
| --- | --- | --- | --- | --- | --- | --- | --- | --- | --- | --- | --- | --- | --- | --- | --- | --- | --- |
| CC(C)(C)C(=O)n1nc(-c2cccnc2)cc1NCc1ccc(Cl)s1 [24e, 1-(5-{[(5-chlorothiophen-2-yl)methyl]amino}-3-(pyridin-3-yl)-1H-pyrazol-1-yl)-2,2-dimethylpropan-1-one] | – | > 5 µM | 0.875 ± 0.059 µM | > 5 µM | > 5 µM | > 5 µM | > 5 µM | > 5 µM | 0.016 ± 0.001 µM | – | – | 26 fold | 84.5 Da and 84.53 Da | 96 to 97 °C | 1.1 fold | 1.1 fold | 55 fold |
| O=c1c2ccccc2n(Cc2ccco2)c2cc(-c3cccnc3)nn12 [10d, 4-[(furan-2-yl)methyl]-2-(pyridin-3-yl)pyrazolo[5,1-b]quinazolin-9(4H)-one] | > 5 µM | – | – | – | > 5 µM | – | – | – | – | – | – | – | – | 272 °C | – | – | – |
| O=C(c1ccccc1I)n1nc(-c2cccnc2)cc1NCc1ccccc1 [9a, [5-(benzylamino)-3-(pyridin-3-yl)-1H-pyrazol-1-yl](2-iodophenyl)methanone] | > 5 µM | – | – | – | > 5 µM | – | – | – | – | – | – | – | – | 115 °C | – | – | – |

The next lines start with results.

| IC50 [1] | IC50 [2] | IC50 [3] | IC50 [4] | IC50 [6] | IC50 [7, 12] | IC50 [8] | IC50 [10] | IC50 [1, 13] | IC50 ([7]; read-out: FXIa IC50) | inhibition at 5 µM ([8]; at 5 μM) | fold more potent thrombin inhibitor than 3-phenyl-substituted analog 24g ([1]; IC50 16 nM vs. 419) | mass-shift of thrombin after incubation with inhibitor (Δm) [11] | melting point | SMILES | aPTT, fold increase compared to DMSO [5] | PT, fold increase compared to DMSO [9] | fold higher dose for 50% inhibition of chymotrypsin than for thrombin ([3]; selectivity chymotrypsin vs thrombin) |
| --- | --- | --- | --- | --- | --- | --- | --- | --- | --- | --- | --- | --- | --- | --- | --- | --- | --- |
| 0.071 ± 0.003 µM | > 5 µM | 1.15 ± 0.11 µM | > 5 µM | > 5 µM | > 5 µM | > 5 µM | > 5 µM | – | – | – | – | – | – | O=C(c1ccccc1)n1nc(-c2ccccc2)c(F)c1NCc1ccc(Cl)s1 [34b, (5-(((5-chlorothiophen-2-yl)methyl)amino)-4-fluoro-3-phenyl-1H-pyrazol-1-yl)(phenyl)methanone] | 1.0 fold | 1.1 fold | – |
| – | > 5 µM | > 5 µM | > 5 µM | > 5 µM | > 5 µM | > 5 µM | > 5 µM | 0.08 ± 0.002 µM | – | – | – | – | – | CC(C)(C)C(=O)n1nc(-c2ccccc2)c(F)c1NCc1ccc(Cl)s1 [34a, 1-(5-(((5-chlorothiophen-2-yl)methyl)amino)-4-fluoro-3-phenyl-1H-pyrazol-1-yl)-2,2-dimethylpropan-1-one] | 1.0 fold | 1.1 fold | – |
| – | > 5 µM | 0.242 ± 0.013 µM | > 5 µM | > 5 µM | 1.02 ± 0.09 µM | ~5 µM | 0.639 ± 0.156 µM | 0.018 ± 0.001 µM | 1 µM | 54% | – | – | – | O=C(c1ccccc1)n1nc(-c2cccnc2)cc1NCc1ccc(Cl)s1 [compound 25, (5-{[(5-chlorothiophen-2-yl)methyl]amino}-3-(pyridin-3-yl)-1H-pyrazol-1-yl)(phenyl)methanone] | 1.1 fold | 1.2 fold | – |
